According to patent US11214594B2, “Antimicrobial peptide having synergistic antibacterial effect with antibiotics on multidrug resistant bacteria, and use thereof” (priority 2016, dated 2022):
≈ marks a conversion by molar mass, not a printed value. Where a SMILES comes first, the peptide text is derived from it.

Experiments:
S. aureus = test: microbe, parasite or virus in culture; assay type: cell-based, Staphylococcus aureus
Method in brief: (§1)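 Broth microdilution in MH medium: bacterial strains diluted to 2×10^6 CFU were mixed with equal volumes of peptide serially diluted twofold in MH medium.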

S. typhimurium = test: microbe, parasite or virus in culture; assay type: cell-based, Salmonella typhimurium
Method in brief: as §1

gram-negative bacteria = test: MIC, summary statements for gram-negative bacteria; assay type: cell-based; conditions: for Antibacterial activity relative to PapMA-1, PapMA-2, PapMA-3 and PapMA-4: most of the gram-negative bacteria
Method: For the antibacterial activity, a minimal inhibitory concentration (MIC) of a peptide in which fungus bodies were not split in an MH medium with sufficient nutrients was measured.
Specifically, the strains described in the following [Table 2] were purchased and diluted with an MH medium such that the number of bacteria was 2×10^6 colony-forming units (CFUs), 100 μl of each of the diluted strains was aliquoted into a 96-well microtiter plate, and then 100 μl of a peptide solution diluted with the MH medium (solution diluted stepwise at 2: 1) was added to each well.

MRSA 3126 = assay type: cell-based, Staphylococcus aureus; conditions: 3126
Method in brief: as §1

MRSA 3114 = assay type: cell-based, Staphylococcus aureus; conditions: 3114
Method in brief: as §1

B. subtilis = test: microbe, parasite or virus in culture; assay type: cell-based, Bacillus subtilis
Method in brief: as §1

MDRST 8009 = assay type: cell-based, Salmonella typhimurium; conditions: agent alone
Method in brief: as §1

MDRAB 12036 = assay type: cell-based, Acinetobacter baumannii
Method in brief: as §1

MDRPA 2003 = assay type: cell-based, Pseudomonas aeruginosa
Method in brief: as §1

MDRPA 2002 = assay type: cell-based, Pseudomonas aeruginosa
Method in brief: as §1

MDREC 1229 [1] = test: MIC of antibiotic during combined treatment with antimicrobial peptide; assay type: cell-based, Escherichia coli
Method in brief: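 Strains in MH medium at 2×10^6 CFU/ml were mixed with peptide diluted stepwise (2:1) from its MIC, then antibiotic dilutions in MH medium were added to give the antibiotic MIC. The reversed set-up, peptide titrated against fixed antibiotic, gave the peptide MIC.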

MDREC 1229 [2] = test: microbe, parasite or virus in culture; assay type: cell-based, Escherichia coli
Method in brief: as §1

E. coli = test: microbe, parasite or virus in culture; assay type: cell-based, Escherichia coli; conditions: for Minimal inhibitory concentration MIC: 16 h; for Antibacterial activity relative to PapMA-1: E. coli
Method in brief: as §1

MDREC 1238 = assay type: cell-based, Escherichia coli
Method in brief: as §1

[3] = peptide treatment concentration 1 μg/ml
[4] = peptide treatment concentration 2 μg/ml
[5] = peptide treatment concentration 4 μg/ml
[6] = peptide treatment concentration 6 μg/ml
[7] = peptide treatment concentration 8 μg/ml
[8] = peptide treatment concentration 16 μg/ml
[9] = peptide treatment concentration 32 μg/ml
[10] = peptide treatment concentration 64 μg/ml

SMILES | Minimal inhibitory concentration MIC (S. aureus) [µg/mL] | Minimal inhibitory concentration MIC (S. typhimurium) [µg/mL] | Minimal inhibitory concentration MIC (MRSA 3126) [µg/mL] | Minimal inhibitory concentration MIC (MRSA 3114) [µg/mL] | Minimal inhibitory concentration MIC (B. subtilis) [µg/mL] | Minimal inhibitory concentration MIC (MDRST 8009) [µg/mL] | Minimal inhibitory concentration MIC (MDRAB 12036) [µg/mL] | Minimal inhibitory concentration MIC (MDRPA 2003) [µg/mL] | Minimal inhibitory concentration MIC (MDRPA 2002) [µg/mL] | Antibiotic MIC, Erythromycin (MDREC 1229 [1]; [3]) [µg/mL] | Antibiotic MIC, Linezolid (MDREC 1229 [1]; [3]) [µg/mL] | Antibiotic MIC, Vancomycin (MDREC 1229 [1]; [3]) [µg/mL] | Antibiotic MIC, Erythromycin (MDREC 1229 [1]; [4]) [µg/mL] | Antibiotic MIC, Linezolid (MDREC 1229 [1]; [4]) [µg/mL] | Antibiotic MIC, Vancomycin (MDREC 1229 [1]; [4]) [µg/mL] | Antibiotic MIC, Erythromycin (MDREC 1229 [1]; [5]) [µg/mL] | Antibiotic MIC, Linezolid (MDREC 1229 [1]; [5]) [µg/mL] | Antibiotic MIC, Vancomycin (MDREC 1229 [1]; [5]) [µg/mL] | Antibiotic MIC, Erythromycin (MDREC 1229 [1]; [6]) [µg/mL] | Antibiotic MIC, Linezolid (MDREC 1229 [1]; [6]) [µg/mL] | also measured
CC[C@H](C)[C@H](NC(=O)[C@H](CCCCN)NC(=O)[C@H](Cc1c[nH]c2ccccc12)NC(=O)[C@@H](N)CCCNC(=N)N)C(=O)N[C@@H](Cc1ccccc1)C(=O)N[C@@H](CCCCN)C(=O)N[C@@H](CCCCN)C(=O)N[C@H](C(=O)N1CCC[C@H]1C(=O)N[C@@H](CCCCN)C(=O)N[C@@H](CC(C)C)C(=O)N[C@@H](CC(C)C)C(=O)N[C@@H](Cc1c[nH]cn1)C(=O)N[C@@H](CO)C(=O)N[C@@H](CC(C)C)C(=O)N[C@@H](CCCCN)C(=O)N[C@@H](CCCCN)C(=O)N[C@@H](Cc1ccccc1)C(N)=O)[C@@H](C)CC [PapMA-8, RWK IFK KIP KLL HSL KKF-NH2] (H-RWKIFKKIPKLLHSLKKF-NH2; N-terminus assumed) | >128 | 32 (≈ 13.9 µM) | >128 | >128 | >128 | 64 (≈ 27.7 µM) | 64 (≈ 27.7 µM) | 16 (≈ 6.93 µM) | 16 (≈ 6.93 µM) | >128 | >128 | >128 | 64 | >128 | >128 | 8 | 128 | >128 | 4 | 32 | Antibacterial activity relative to PapMA-1, PapMA-2, PapMA-3 and PapMA-4 (gram-negative bacteria): same or higher; Antibiotic MIC, Vancomycin (MDREC 1229 [1]; [6]): >128 µg/mL; Antibiotic MIC, Erythromycin (MDREC 1229 [1]; [7]): 1 µg/mL; Antibiotic MIC, Linezolid (MDREC 1229 [1]; [7]): 32 µg/mL; Antibiotic MIC, Vancomycin (MDREC 1229 [1]; [7]): 32 µg/mL; Antibiotic MIC, Erythromycin (MDREC 1229 [1]; [8]): 0.5 µg/mL; Antibiotic MIC, Linezolid (MDREC 1229 [1]; [8]): 16 µg/mL; Antibiotic MIC, Vancomycin (MDREC 1229 [1]; [8]): 16 µg/mL; Antibiotic MIC, Erythromycin (MDREC 1229 [1]; [9]): 0.125 µg/mL; Antibiotic MIC, Linezolid (MDREC 1229 [1]; [9]): 8 µg/mL; Antibiotic MIC, Vancomycin (MDREC 1229 [1]; [9]): 8 µg/mL; Antibiotic MIC, Erythromycin (MDREC 1229 [1]; [10]): 0 µg/mL; Antibiotic MIC, Linezolid (MDREC 1229 [1]; [10]): 0 µg/mL; Antibiotic MIC, Vancomycin (MDREC 1229 [1]; [10]): 0 µg/mL; Minimal inhibitory concentration MIC (MDREC 1229 [2]): 64 µg/mL (≈ 27.7 µM); Minimal inhibitory concentration MIC (E. coli): 32 µg/mL (≈ 13.9 µM); Antibacterial activity relative to PapMA-1 (E. coli): at least twice as high; Minimal inhibitory concentration MIC (MDREC 1238): 64 µg/mL (≈ 27.7 µM)
CC[C@H](C)[C@H](NC(=O)[C@H](CCCCN)NC(=O)[C@H](Cc1c[nH]c2ccccc12)NC(=O)[C@@H](N)CCCNC(=N)N)C(=O)N[C@@H](Cc1ccccc1)C(=O)N[C@@H](CCCCN)C(=O)N[C@@H](CCCCN)C(=O)N[C@H](C(=O)N1CCC[C@H]1C(=O)N[C@@H](CCCCN)C(=O)N[C@@H](Cc1ccccc1)C(=O)N[C@@H](CC(C)C)C(=O)N[C@@H](Cc1c[nH]cn1)C(=O)N[C@@H](CO)C(=O)N[C@@H](C)C(=O)N[C@@H](CCCCN)C(=O)N[C@@H](CCCCN)C(=O)N[C@@H](Cc1c[nH]c2ccccc12)C(N)=O)[C@@H](C)CC [PapMA-2, RWK IFK KIP KFL HSA KKW-NH2] (H-RWKIFKKIPKFLHSAKKW-NH2; N-terminus assumed) | >128 | 32 (≈ 13.7 µM) | >128 | >128 | >128 | 64 (≈ 27.3 µM) | 16 (≈ 6.83 µM) | 16 (≈ 6.83 µM) | 16 (≈ 6.83 µM) | 64 | >128 | >128 | 32 | 64 | >128 | 16 | 32 | 128 | 8 | 32 | Antibacterial activity (in words) (gram-negative bacteria; gram-negative bacteria): comparable to papiliocin or melittin; Antibiotic MIC, Vancomycin (MDREC 1229 [1]; [6]): 128 µg/mL; Antibiotic MIC, Erythromycin (MDREC 1229 [1]; [7]): 2 µg/mL; Antibiotic MIC, Linezolid (MDREC 1229 [1]; [7]): 16 µg/mL; Antibiotic MIC, Vancomycin (MDREC 1229 [1]; [7]): 64 µg/mL; Antibiotic MIC, Erythromycin (MDREC 1229 [1]; [8]): 0.5 µg/mL; Antibiotic MIC, Linezolid (MDREC 1229 [1]; [8]): 8 µg/mL; Antibiotic MIC, Vancomycin (MDREC 1229 [1]; [8]): 16 µg/mL; Antibiotic MIC, Erythromycin (MDREC 1229 [1]; [9]): 0.125 µg/mL; Antibiotic MIC, Linezolid (MDREC 1229 [1]; [9]): 4 µg/mL; Antibiotic MIC, Vancomycin (MDREC 1229 [1]; [9]): 8 µg/mL; Antibiotic MIC, Erythromycin (MDREC 1229 [1]; [10]): 0 µg/mL; Antibiotic MIC, Linezolid (MDREC 1229 [1]; [10]): 0 µg/mL; Antibiotic MIC, Vancomycin (MDREC 1229 [1]; [10]): 0 µg/mL; Minimal inhibitory concentration MIC (MDREC 1229 [2]): 64 µg/mL (≈ 27.3 µM); Minimal inhibitory concentration MIC (E. coli): 64 µg/mL (≈ 27.3 µM); Minimal inhibitory concentration MIC (MDREC 1238): 64 µg/mL (≈ 27.3 µM)
CC[C@H](C)[C@H](NC(=O)[C@H](CCCCN)NC(=O)[C@H](Cc1c[nH]c2ccccc12)NC(=O)[C@@H](N)CCCNC(=N)N)C(=O)N[C@@H](Cc1ccccc1)C(=O)N[C@@H](CCCCN)C(=O)N[C@@H](CCCCN)C(=O)N[C@H](C(=O)N1CCC[C@H]1C(=O)N[C@@H](CCCCN)C(=O)N[C@@H](CC(C)C)C(=O)N[C@@H](CC(C)C)C(=O)N[C@@H](Cc1c[nH]cn1)C(=O)N[C@@H](CO)C(=O)N[C@@H](Cc1ccccc1)C(=O)N[C@@H](CCCCN)C(=O)N[C@@H](CCCCN)C(=O)N[C@@H](Cc1ccccc1)C(N)=O)[C@@H](C)CC [PapMA-7, RWK IFK KIP KLL HSF KKF-NH2] (H-RWKIFKKIPKLLHSFKKF-NH2; N-terminus assumed) | >128 | 16 (≈ 6.83 µM) | >128 | >128 | >128 | 32 (≈ 13.7 µM) | 32 (≈ 13.7 µM) | 16 (≈ 6.83 µM) | 16 (≈ 6.83 µM) | 64 | 128 | >128 | 16 | 32 | >128 | 4 | 16 | 128 | 2 | 8 | Antibacterial activity relative to PapMA-1, PapMA-2, PapMA-3 and PapMA-4 (gram-negative bacteria): same or higher; Antibiotic MIC, Vancomycin (MDREC 1229 [1]; [6]): 16 µg/mL; Antibiotic MIC, Erythromycin (MDREC 1229 [1]; [7]): 1 µg/mL; Antibiotic MIC, Linezolid (MDREC 1229 [1]; [7]): 4 µg/mL; Antibiotic MIC, Vancomycin (MDREC 1229 [1]; [7]): 8 µg/mL; Antibiotic MIC, Erythromycin (MDREC 1229 [1]; [8]): 0.125 µg/mL; Antibiotic MIC, Linezolid (MDREC 1229 [1]; [8]): 2 µg/mL; Antibiotic MIC, Vancomycin (MDREC 1229 [1]; [8]): 2 µg/mL; Antibiotic MIC, Erythromycin (MDREC 1229 [1]; [9]): 0.0625 µg/mL; Antibiotic MIC, Linezolid (MDREC 1229 [1]; [9]): 1 µg/mL; Antibiotic MIC, Vancomycin (MDREC 1229 [1]; [9]): 1 µg/mL; Antibiotic MIC, Erythromycin (MDREC 1229 [1]; [10]): 0 µg/mL; Antibiotic MIC, Linezolid (MDREC 1229 [1]; [10]): 0 µg/mL; Antibiotic MIC, Vancomycin (MDREC 1229 [1]; [10]): 0 µg/mL; Minimal inhibitory concentration MIC (MDREC 1229 [2]): 64 µg/mL (≈ 27.3 µM); Minimal inhibitory concentration MIC (E. coli): 32 µg/mL (≈ 13.7 µM); Antibacterial activity relative to PapMA-1 (E. coli): at least twice as high; Minimal inhibitory concentration MIC (MDREC 1238): 64 µg/mL (≈ 27.3 µM)
